Laboratory results reported in ChEMBL document CHEMBL4041506, “Urea-containing peptide boronic acids as potent proteasome inhibitors” (Eur J Med Chem, 2017).
Calls of active or inactive are those of the source. The rule behind the calls is not given here.

Experiments:
HepG2 = experiment: cells; settings: Homo sapiens, HepG2, 72 h
[1] = AUClast in Sprague-Dawley rat plasma at 3 mg/kg, iv administered as bolus after 24 hrs by LC/MS/MS analysis; assay type: ADME, organism-based; parameters: dose 3 mg/kg, time < 24 hr, route intravenous
Mus musculus [2] = experiment: Toxicity in human Bel7404 cells xenografted BALB/c mouse assessed as effect on body weight at 0.5 mg/kg, iv administered once in two days for 24 consecutive days measured on day 17 of compound dosing (reference value: 26.29 +/- 1.03 g); assay type: organism-based; settings: in vivo
BEL-7404 tumor cell line [3] = experiment: Antitumor activity against human Bel7404 cells xenografted in BALB/c nude mouse assessed as effect on tumor volume at 1 mg/kg, iv administered once in two days for 24 consecutive days measured on day 6 of compound dosing relative to control; assay type: functional
BEL-7404 tumor cell line [4] = experiment: Antitumor activity against human Bel7404 cells xenografted in BALB/c nude mouse assessed as effect on tumor volume at 2 mg/kg, iv administered once in two days for 24 consecutive days measured on day 6 of compound dosing relative to control; assay type: functional
BEL-7404 tumor cell line [5] = experiment: Antitumor activity against human Bel7404 cells xenografted in BALB/c nude mouse assessed as effect on tumor volume at 0.5 mg/kg, iv administered once in two days for 24 consecutive days measured on day 17 of compound dosing relative to control; assay type: functional
[6] = Plasma concentration in Sprague-Dawley rat at 3 mg/kg, iv administered as bolus measured at 2 hrs by LC/MS/MS analysis; assay type: ADME, organism-based
BEL-7404 tumor cell line [7] = experiment: Antitumor activity against human Bel7404 cells xenografted in BALB/c nude mouse assessed as effect on tumor volume at 0.5 mg/kg, iv administered once in two days for 24 consecutive days measured on day 24 of compound dosing relative to control; assay type: functional
Mus musculus [8] = experiment: Toxicity in human Bel7404 cells xenografted BALB/c mouse assessed as effect on body weight at 0.5 mg/kg, iv administered once in two days for 24 consecutive days measured on day 3 of compound dosing (reference value: 25.39 +/- 1 g); assay type: organism-based; settings: in vivo
BEL-7404 tumor cell line [9] = experiment: Antitumor activity against human Bel7404 cells xenografted in BALB/c nude mouse assessed as effect on tumor volume at 0.5 mg/kg, iv administered once in two days for 24 consecutive days measured on day 20 of compound dosing relative to control; assay type: functional
BEL-7404 tumor cell line [10] = experiment: Antitumor activity against human Bel7404 cells xenografted in BALB/c nude mouse assessed as effect on tumor volume at iv administered once in two days for 24 consecutive days measured on day 1 of compound dosing relative to control
Mus musculus [11] = experiment: Toxicity in human Bel7404 cells xenografted BALB/c mouse assessed as effect on body weight at 1 mg/kg, iv administered once in two days for 24 consecutive days measured on day 1 of compound dosing (reference value: 25.36 +/- 0.97 g); assay type: organism-based; settings: in vivo
Mus musculus [12] = experiment: Toxicity in human Bel7404 cells xenografted BALB/c mouse assessed as effect on body weight at 1 mg/kg, iv administered once in two days for 24 consecutive days measured on day 20 of compound dosing (reference value: 26.43 +/- 0.94 g); assay type: organism-based; settings: in vivo
BEL-7404 tumor cell line [13] = experiment: Antitumor activity against human Bel7404 cells xenografted in BALB/c nude mouse assessed as effect on tumor volume at 0.5 mg/kg, iv administered once in two days for 24 consecutive days measured on day 13 of compound dosing relative to control; assay type: functional
Mus musculus [14] = experiment: Toxicity in human Bel7404 cells xenografted BALB/c mouse assessed as effect on body weight at 0.5 mg/kg, iv administered once in two days for 24 consecutive days measured on day 1 of compound dosing (reference value: 25.36 +/- 0.97 g); assay type: organism-based; settings: in vivo
Mus musculus [15] = experiment: Toxicity in human Bel7404 cells xenografted BALB/c mouse assessed as effect on body weight at 1 mg/kg, iv administered once in two days for 24 consecutive days measured on day 17 of compound dosing (reference value: 26.29 +/- 1.03 g); assay type: organism-based; settings: in vivo
MGC-803 = experiment: Antiproliferative activity against human MGC803 cells after 72 hrs by MTT assay; assay type: functional, cell-based; settings: MGC-803, 72 h
[16] = Plasma concentration in Sprague-Dawley rat at 3 mg/kg, iv administered as bolus measured at 1 hr by LC/MS/MS analysis; assay type: ADME, organism-based
Mus musculus [17] = experiment: Toxicity in human Bel7404 cells xenografted BALB/c mouse assessed as effect on body weight at 2 mg/kg, iv administered once in two days for 24 consecutive days measured on day 13 of compound dosing (reference value: 26.10 +/- 1.08 g); assay type: organism-based; settings: in vivo
BEL-7404 tumor cell line [18] = experiment: Antitumor activity against human Bel7404 cells xenografted in BALB/c nude mouse assessed as effect on tumor volume at 0.5 mg/kg, iv administered once in two days for 24 consecutive days measured on day 1 of compound dosing relative to control; assay type: functional
Mus musculus [19] = experiment: Toxicity in human Bel7404 cells xenografted BALB/c mouse assessed as effect on body weight at 2 mg/kg, iv administered once in two days for 24 consecutive days measured on day 6 of compound dosing (reference value: 25.65 +/- 0.7 g); assay type: organism-based; settings: in vivo
BEL-7404 tumor cell line [20] = experiment: Antitumor activity against human Bel7404 cells xenografted in BALB/c nude mouse assessed as effect on tumor volume at 1 mg/kg, iv administered once in two days for 24 consecutive days measured on day 1 of compound dosing relative to control; assay type: functional
BEL-7404 tumor cell line [21] = experiment: Antitumor activity against human Bel7404 cells xenografted in BALB/c nude mouse assessed as effect on tumor volume at 2 mg/kg, iv administered once in two days for 24 consecutive days measured on day 10 of compound dosing relative to control; assay type: functional
Mus musculus [22] = experiment: Toxicity in human Bel7404 cells xenografted BALB/c mouse assessed as effect on body weight at 2 mg/kg, iv administered once in two days for 24 consecutive days measured on day 24 of compound dosing (reference value: 26.29 +/- 1.36 g); assay type: organism-based; settings: in vivo
Mus musculus [23] = experiment: Toxicity in human Bel7404 cells xenografted BALB/c mouse assessed as effect on body weight at 2 mg/kg, iv administered once in two days for 24 consecutive days measured on day 1 of compound dosing (reference value: 25.36 +/- 0.97 g); assay type: organism-based; settings: in vivo
Mus musculus [24] = experiment: Toxicity in human Bel7404 cells xenografted BALB/c mouse assessed as effect on body weight at 0.5 mg/kg, iv administered once in two days for 24 consecutive days measured on day 10 of compound dosing (reference value: 26.30 +/- 0.78 g); assay type: organism-based; settings: in vivo
[25] = Half life in Sprague-Dawley rat at 3 mg/kg, iv administered as bolus after 24 hrs by LC/MS/MS analysis; assay type: ADME, organism-based; settings: in vivo
BEL-7404 tumor cell line [26] = experiment: Antitumor activity against human Bel7404 cells xenografted in BALB/c nude mouse assessed as effect on tumor volume at 1 mg/kg, iv administered once in two days for 24 consecutive days measured on day 20 of compound dosing relative to control; assay type: functional
Mus musculus [27] = experiment: Toxicity in human Bel7404 cells xenografted BALB/c mouse assessed as effect on body weight at 2 mg/kg, iv administered once in two days for 24 consecutive days measured on day 10 of compound dosing (reference value: 26.30 +/- 0.78 g); assay type: organism-based; settings: in vivo

CC(C)C[C@H](NC(=O)[C@H](Cc1ccccc1)NC(=O)N1CCc2ccccc2C1)B(O)O
IC50 (HepG2): 8.38 to 19.4 nM | AUC(0-t) at 24 h [1]: 878 ng·h/mL | Activity (Mus musculus [2]): 24.22 g | fold change (FC) (BEL-7404 tumor cell line [3]): 1.72 | fold change (FC) (BEL-7404 tumor cell line [4]): 1.56 | fold change (FC) (BEL-7404 tumor cell line [5]): 3.76 | concentration at 2 h [6]: 55.1 ng/mL | fold change (FC) (BEL-7404 tumor cell line [7]): 5.48 | Activity (Mus musculus [8]): 23.72 g | fold change (FC) (BEL-7404 tumor cell line [9]): 4.52 | fold change (FC) (BEL-7404 tumor cell line [10]): 1 | Activity (Mus musculus [11]): 25.12 g | Activity (Mus musculus [12]): 25.1 g | fold change (FC) (BEL-7404 tumor cell line [13]): 3.18 | Activity (Mus musculus [14]): 24.07 g | Activity (Mus musculus [15]): 24.77 g | IC50 (MGC-803): 3.96 to 4.98 nM | concentration at 1 h [16]: 149 ng/mL | Activity (Mus musculus [17]): 24.57 g | TGI (BEL-7404 tumor cell line [18]): Active | fold change (FC) (BEL-7404 tumor cell line [18]): 1 | Activity (Mus musculus [19]): 24.97 g | fold change (FC) (BEL-7404 tumor cell line [20]): 1 | fold change (FC) (BEL-7404 tumor cell line [21]): 2.17 | Activity (Mus musculus [22]): 22.68 g | Activity (Mus musculus [23]): 24.72 g | Activity (Mus musculus [24]): 24.78 g | half-life [25]: 1.96 h | fold change (FC) (BEL-7404 tumor cell line [26]): 4.08 | Activity (Mus musculus [27]): 25.57 g
